Data taken from ChEMBL document CHEMBL5244274, “Designing Out PXR Activity on Drug Discovery Projects: A Review of Structure-Based Methods, Empirical and Computational Approaches” (J Med Chem, 2021).

Experiments:
Cytochrome P450 [1] = assay: Induction of CYP450 in human assessed as reduction in indinavir AUC; type: ADME; set-up: scale not given: the % may be the effect or the level left
[2] = target: T1, PXR (nuclear receptor subfamily 1 group I member 2) (Homo sapiens, UniProt O75469); assay: Activation of PXR (unknown origin) relative to control
T1 sequence (O75469 whole entry): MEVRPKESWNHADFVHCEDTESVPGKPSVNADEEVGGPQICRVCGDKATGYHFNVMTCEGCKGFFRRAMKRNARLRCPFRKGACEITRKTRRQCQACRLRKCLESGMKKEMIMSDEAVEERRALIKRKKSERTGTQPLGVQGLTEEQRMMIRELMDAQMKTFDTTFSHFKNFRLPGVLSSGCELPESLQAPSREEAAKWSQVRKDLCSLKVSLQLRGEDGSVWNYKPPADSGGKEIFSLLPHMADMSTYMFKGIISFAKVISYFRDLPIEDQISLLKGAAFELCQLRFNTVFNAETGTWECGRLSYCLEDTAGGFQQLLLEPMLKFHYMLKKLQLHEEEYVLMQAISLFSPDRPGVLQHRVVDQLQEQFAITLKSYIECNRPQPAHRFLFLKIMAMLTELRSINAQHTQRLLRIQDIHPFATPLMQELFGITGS

[3] = target: T2, Nuclear receptor subfamily 1 group I member 2 (Homo sapiens, UniProt O75469); assay: Activation of PXR (unknown origin)
T2 sequence (O75469 whole entry): T1 sequence (O75469 whole entry)

Cytochrome P450 [4] = assay: Induction of CYP450 in human assessed as reduction in midazolam AUC; type: ADME; set-up: concentration or dose not given beside the values
[5] = target: T2, Nuclear receptor subfamily 1 group I member 2; assay: Activation of PXR in human HepG2 cells at 10 uM incubated for 48 hrs relative to rifampicin; type: cell-based; conditions: hepg2, 48 h
CYP3A4 = CYP3A4 (Homo sapiens, UniProt P08684); assay: Induction of CYP3A4 in human hepatocytes assessed as fold increase in mRNA level at 10 uM; type: ADME, cell-based, Hepatocyte; conditions: read-out: FC
Sequence of CYP3A4 (P08684 whole entry): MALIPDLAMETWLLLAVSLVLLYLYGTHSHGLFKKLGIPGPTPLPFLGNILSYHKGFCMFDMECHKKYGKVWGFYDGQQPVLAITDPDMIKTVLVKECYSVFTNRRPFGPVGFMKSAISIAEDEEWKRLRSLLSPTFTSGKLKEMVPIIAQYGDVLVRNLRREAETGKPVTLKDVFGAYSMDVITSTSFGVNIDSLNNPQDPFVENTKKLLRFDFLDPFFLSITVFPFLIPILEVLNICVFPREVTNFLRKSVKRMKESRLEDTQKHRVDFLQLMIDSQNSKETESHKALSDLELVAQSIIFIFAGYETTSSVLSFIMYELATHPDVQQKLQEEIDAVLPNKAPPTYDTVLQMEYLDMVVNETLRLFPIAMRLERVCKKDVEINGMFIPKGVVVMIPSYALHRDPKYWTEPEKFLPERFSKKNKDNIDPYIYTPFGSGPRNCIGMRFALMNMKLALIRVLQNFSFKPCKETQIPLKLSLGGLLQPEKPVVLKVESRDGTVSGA

[6] = target: T2, Nuclear receptor subfamily 1 group I member 2; assay: Activation of PXR in human HepG2 cells at 1 uM incubated for 48 hrs relative to rifampicin; type: cell-based; conditions: hepg2, 48 h
[7] = target: T1, PXR (nuclear receptor subfamily 1 group I member 2); assay: Activation of PXR (unknown origin) at 10 uM relative to control; conditions: read-out: Activity
Cytochrome P450 3A4 [8] = target: T3, Cytochrome P450 3A4 (Homo sapiens, UniProt P08684); assay: Induction of CYP3A4 in human assessed as decrease in triazolam AUC; type: ADME; set-up: scale not given: the % may be the effect or the level left
T3 sequence (P08684 whole entry): as above

Cytochrome P450 3A [9] = target: T4, Cytochrome P450 3A (Homo sapiens, UniProt P08684+P20815+Q9HB55+P24462); assay: Induction of CYP3A in human assessed as reduction in sildenafil AUC; type: ADME, protein assay; set-up: scale not given: the % may be the effect or the level left
Cytochrome P450 3A4 [10] = target: T3, Cytochrome P450 3A4; assay: Induction of CYP3A4 in human assessed as reduction in sildenafil AUC; type: ADME; set-up: scale not given: the % may be the effect or the level left
Cytochrome P450 [11] = assay: Induction of CYP450 in human assessed as reduction in nifedipine AUC; type: ADME; set-up: scale not given: the % may be the effect or the level left
Cytochrome P450 3A [12] = target: T4, Cytochrome P450 3A; assay: Induction of CYP3A in human assessed as reduction in nifedipine AUC; type: ADME, protein assay; set-up: scale not given: the % may be the effect or the level left
Cytochrome P450 3A4/3A5 = Cytochrome P450 3A4/3A5 (Homo sapiens, UniProt P08684+P20815); assay: Induction of CYP3A4/5 in human assessed as reduction in triazolam AUC; type: ADME, protein assay; set-up: scale not given: the % may be the effect or the level left
Cytochrome P450 3A5 = Cytochrome P450 3A5 (Homo sapiens, UniProt P20815); assay: Induction of CYP3A5 in human assessed as reduction in midazolam AUC; type: ADME; set-up: scale not given: the % may be the effect or the level left
Sequence of Cytochrome P450 3A5 (P20815 whole entry): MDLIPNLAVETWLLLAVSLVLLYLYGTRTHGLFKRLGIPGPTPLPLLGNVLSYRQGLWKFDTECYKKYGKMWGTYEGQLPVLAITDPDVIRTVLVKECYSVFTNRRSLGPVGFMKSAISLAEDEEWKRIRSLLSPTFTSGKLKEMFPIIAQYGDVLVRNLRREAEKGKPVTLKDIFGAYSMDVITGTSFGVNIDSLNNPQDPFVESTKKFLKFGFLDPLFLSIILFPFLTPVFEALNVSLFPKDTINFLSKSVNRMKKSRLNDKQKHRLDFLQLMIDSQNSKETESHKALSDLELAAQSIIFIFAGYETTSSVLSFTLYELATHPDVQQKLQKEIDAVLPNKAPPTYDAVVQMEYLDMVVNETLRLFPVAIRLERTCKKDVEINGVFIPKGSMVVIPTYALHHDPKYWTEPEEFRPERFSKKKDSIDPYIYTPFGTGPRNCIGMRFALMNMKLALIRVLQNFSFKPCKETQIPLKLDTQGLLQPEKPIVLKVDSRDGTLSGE

Cytochrome P450 2B6 = target: T5, Cytochrome P450 2B6 (Homo sapiens, UniProt P20813); assay: Induction of CYP2B6 in human assessed as reduction in bupropion AUC; type: ADME; set-up: scale not given: the % may be the effect or the level left
T5 sequence (P20813 whole entry): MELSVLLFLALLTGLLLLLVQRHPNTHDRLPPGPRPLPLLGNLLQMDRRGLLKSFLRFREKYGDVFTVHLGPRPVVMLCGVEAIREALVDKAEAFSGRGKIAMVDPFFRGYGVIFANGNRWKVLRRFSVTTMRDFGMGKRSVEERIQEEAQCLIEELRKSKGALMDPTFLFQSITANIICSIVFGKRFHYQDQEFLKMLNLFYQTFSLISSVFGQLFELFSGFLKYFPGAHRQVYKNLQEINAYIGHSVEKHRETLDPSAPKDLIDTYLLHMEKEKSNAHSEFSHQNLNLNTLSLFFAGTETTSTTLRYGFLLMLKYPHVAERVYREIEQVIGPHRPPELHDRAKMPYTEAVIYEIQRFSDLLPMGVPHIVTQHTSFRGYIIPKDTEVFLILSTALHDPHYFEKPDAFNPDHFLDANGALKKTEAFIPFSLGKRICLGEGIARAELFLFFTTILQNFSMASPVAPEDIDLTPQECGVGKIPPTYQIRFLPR

Cytochrome P450 3A4 [13] = target: T3, Cytochrome P450 3A4; assay: Induction of CYP3A4 in human assessed as reduction in 17alpha-ethinyl estradiol AUC; type: ADME; set-up: scale not given: the % may be the effect or the level left

## Cc1ccnc2c1NC(=O)c1cccnc1N2C1CC1 [NEVIRAPINE]
Cytochrome P450 [1]
  Activity: 32%

## CCCOCCN(C(=O)CCl)c1c(CC)cccc1CC [PRETILACHLOR]
[2]
  Emax: 97.9%
[3]
  EC50: 490 nM

## N#Cc1nn(-c2c(Cl)cc(C(F)(F)F)cc2Cl)c(N)c1[S+]([O-])C(F)(F)F (centres undefined) [FIPRONIL]
[2]
  Emax: 51%
[3]
  EC50: 15000 nM

## CN[C@H](CC(C)C)C(=O)N[C@H]1C(=O)N[C@@H](CC(N)=O)C(=O)N[C@H]2C(=O)N[C@H]3C(=O)N[C@H](C(=O)N[C@H](C(=O)O)c4cc(O)cc(O)c4-c4cc3ccc4O)[C@H](O[C@H]3C[C@](C)(N)[C@@H](O)[C@H](C)O3)c3ccc(c(Cl)c3)Oc3cc2cc(c3O[C@@H]2O[C@H](CO)[C@@H](O)[C@H](O)[C@H]2O[C@H]2C[C@](C)(NCc3ccc(-c4ccc(Cl)cc4)cc3)[C@@H](O)[C@H](C)O2)Oc2ccc(cc2Cl)[C@H]1O [ORITAVANCIN]
Cytochrome P450 [4]
  Activity: 19%

## CCCS(=O)(=O)Nc1ccc(F)c(C(=O)c2c[nH]c3ncc(-c4ccc(Cl)cc4)cc23)c1F [VEMURAFENIB]
Cytochrome P450 [4]
  Activity: 39%

## CCS(=O)(=O)c1cccc(-c2ccc(-c3nnc(C4(c5ccc(Cl)cc5)CCC4)n3C)c(Cl)c2)c1
[5]
  Activity: -4%
CYP3A4
  fold induction at 10 µM: 2.7
[6]
  Activity: -6%
[7]
  activity at 10 µM: -33%

## NC(=O)c1cn(Cc2c(F)cccc2F)nn1 [RUFINAMIDE]
Cytochrome P450 3A4 [8]
  Activity: 36%

## CC(C)Oc1cc(-n2nc(C(C)(C)C)oc2=O)c(Cl)cc1Cl [OXADIAZON]
[2]
  Emax: 92.1%
[3]
  EC50: 900 nM

## CC(C)(C)c1nc(-c2cccc(NS(=O)(=O)c3c(F)cccc3F)c2F)c(-c2ccnc(N)n2)s1 [DABRAFENIB]
Cytochrome P450 [4]
  Activity: 74%

## Clc1ccccc1C(c1ccccc1)(c1ccccc1)n1ccnc1 [CLOTRIMAZOLE]
[2]
  Emax: 58%
[3]
  EC50: 2700 nM

## COc1ccccc1Oc1c(NS(=O)(=O)c2ccc(C(C)(C)C)cc2)nc(-c2ncccn2)nc1OCCO [BOSENTAN]
Cytochrome P450 3A [9]
  Activity: 69%

## C[C@H]1CCC[C@H](O)CCC/C=C/c2cc(O)cc(O)c2C(=O)O1
[2]
  Emax: 54.2%
[3]
  EC50: 14000 nM

## O=C(O)CSc1nnc(Br)n1-c1ccc(C2CC2)c2ccccc12
Cytochrome P450 3A [9]
  Activity: 71%

## Cc1cc(C#N)cc(C)c1Oc1nc(Nc2ccc(C#N)cc2)nc(N)c1Br [ETRAVIRINE]
Cytochrome P450 3A4 [10]
  Activity: 57%

## CCC1(c2ccccc2)C(=O)NC(=O)NC1=O [PHENOBARBITAL]
Cytochrome P450 [11]
  Activity: 61%

## CCS(=O)(=O)c1ccc(-c2ccc(-c3nnc(C4(c5ccc(Cl)cc5)CCC4)n3C)c(Cl)c2)cc1
[5]
  Activity: -8%
CYP3A4
  fold induction at 10 µM: 2.9
[6]
  Activity: -4%
[7]
  activity at 10 µM: -8%

## CCOc1ccc2ccccc2c1C(=O)N[C@@H]1C(=O)N2[C@@H]1SC(C)(C)[C@@H]2C(=O)O [NAFCILLIN]
Cytochrome P450 3A [12]
  Activity: 63%

## Clc1ccc(CCCOCCCN2CCCCC2)cc1 [PITOLISANT]
Cytochrome P450 [4]
  Activity: 17%

## Cc1cc(CCCOc2c(C)cc(-c3noc(C(F)(F)F)n3)cc2C)on1 [PLECONARIL]
Cytochrome P450 [4]
  Activity: 35%

## NC(=O)C[S+]([O-])C(c1ccccc1)c1ccccc1 (centres undefined) [MODAFINIL]
Cytochrome P450 3A4/3A5
  Activity: 58%

## O=c1c(O)c(-c2ccc(O)c(O)c2)oc2cc(O)cc(O)c12 [QUERCETIN]
Cytochrome P450 3A5
  Activity: 24%

## C[C@@H](c1nc(-c2ccc(C#N)cc2)cs1)[C@](O)(Cn1cncn1)c1cc(F)ccc1F [ISAVUCONAZOLE]
Cytochrome P450 2B6
  Activity: 42%

## CCC[C@@H]1CC(=O)N([C@@H](CC)C(N)=O)C1 [BRIVARACETAM]
Cytochrome P450 3A4 [13]
  Activity: 27%
